In PubChem BioAssay (NCI):
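Grown in 96-well plates, cells were treated for 48 hours with each compound at five concentrations. Insufficient inhibition: endpoint recorded as highest concentration tested. GI50 marks 50% less growth. The concentration for full growth arrest is given as TGI.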

Assays:
Experiment in all cases: DTP human tumour cell line panel, 48 h
NCI-H23 lung = test system: NCI-H23 lung
A498 renal = test system: A498 renal
CAKI-1 renal = test system: CAKI-1 renal
SF-539 CNS = test system: SF-539 CNS
OVCAR-8 ovarian = test system: OVCAR-8 ovarian
LOX IMVI melanoma = test system: LOX IMVI melanoma
SNB-75 CNS = test system: SNB-75 CNS
DU-145 prostate = test system: DU-145 prostate
SK-MEL-28 melanoma = test system: SK-MEL-28 melanoma
IGROV1 ovarian = test system: IGROV1 ovarian
PC-3 prostate = test system: PC-3 prostate
RXF 393 renal = test system: RXF 393 renal
MCF7 breast = test system: MCF7 breast
COLO 205 colon = test system: COLO 205 colon
TK-10 renal = test system: TK-10 renal
SF-295 CNS = test system: SF-295 CNS
EKVX NSCLC = test system: EKVX NSCLC
SK-MEL-2 melanoma = test system: SK-MEL-2 melanoma
MOLT-4 leukemia = test system: MOLT-4 leukemia
NCI-H522 lung = test system: NCI-H522 lung
UACC-62 melanoma = test system: UACC-62 melanoma
UACC-257 melanoma = test system: UACC-257 melanoma
OVCAR-3 ovarian = test system: OVCAR-3 ovarian
K-562 leukemia = test system: K-562 leukemia
RPMI-8226 leukemia = test system: RPMI-8226 leukemia
MDA-MB-468 breast = test system: MDA-MB-468 breast
U251 CNS = test system: U251 CNS
SR leukemia = test system: SR leukemia
786-0 renal = test system: 786-0 renal
HOP-92 NSCLC = test system: HOP-92 NSCLC
T-47D breast = test system: T-47D breast
OVCAR-5 ovarian = test system: OVCAR-5 ovarian
KM12 colon = test system: KM12 colon
HL-60(TB) leukemia = test system: HL-60(TB) leukemia
NCI-H460 lung = test system: NCI-H460 lung
M14 melanoma = test system: M14 melanoma
OVCAR-4 ovarian = test system: OVCAR-4 ovarian
SK-MEL-5 melanoma = test system: SK-MEL-5 melanoma
HOP-62 NSCLC = test system: HOP-62 NSCLC
MDA-MB-435 = test system: MDA-MB-435
SK-OV-3 ovarian = test system: SK-OV-3 ovarian
SF-268 CNS = test system: SF-268 CNS
MALME-3M melanoma = test system: MALME-3M melanoma
CCRF-CEM leukemia = test system: CCRF-CEM leukemia
HT29 colon = test system: HT29 colon
MDA-MB-231 breast = test system: MDA-MB-231 breast
NCI-H226 lung = test system: NCI-H226 lung
HCT-116 colon = test system: HCT-116 colon
HS 578T breast = test system: HS 578T breast
BT-549 breast = test system: BT-549 breast
HCT-15 colon = test system: HCT-15 colon
A549 NSCLC = test system: A549 NSCLC
HCC-2998 colon = test system: HCC-2998 colon
SW-620 colon = test system: SW-620 colon
ACHN renal = test system: ACHN renal
UO-31 renal = test system: UO-31 renal
SNB-19 CNS = test system: SNB-19 CNS

Q: N#C[Se]CC(=O)Nc1cccc(C(F)(F)F)c1 was tested. Which GI50 (NCI-H23 lung) did it give?
A: 2.25 µM

Q: What about the TGI (NCI-H23 lung) of the same compound?
A: 5.59 µM

Q: And the GI50 (A498 renal)?
A: 3.95 µM

Q: And the TGI (A498 renal)?
A: 17.7 µM

Q: And the GI50 (CAKI-1 renal)?
A: 2.23 µM

Q: What about the TGI (CAKI-1 renal) of the same compound?
A: 4.77 µM

Q: And the GI50 (SF-539 CNS)?
A: 1.78 µM

Q: What about the TGI (SF-539 CNS) of the same compound?
A: 3.25 µM

Q: What about the GI50 (OVCAR-8 ovarian) of the same compound?
A: 2.01 µM

Q: What about the TGI (OVCAR-8 ovarian) of the same compound?
A: 4.48 µM

Q: What about the GI50 (LOX IMVI melanoma) of the same compound?
A: 1.49 µM

Q: And the TGI (LOX IMVI melanoma)?
A: 3.21 µM

Q: And the GI50 (SNB-75 CNS)?
A: 1.72 µM

Q: What about the TGI (SNB-75 CNS) of the same compound?
A: 5.26 µM

Q: And the GI50 (DU-145 prostate)?
A: 1.9 µM

Q: What about the TGI (DU-145 prostate) of the same compound?
A: 4.32 µM

Q: And the GI50 (SK-MEL-28 melanoma)?
A: 2.01 µM

Q: What about the TGI (SK-MEL-28 melanoma) of the same compound?
A: 5.07 µM

Q: And the GI50 (IGROV1 ovarian)?
A: 1.55 µM

Q: What about the TGI (IGROV1 ovarian) of the same compound?
A: 3.57 µM

Q: What about the GI50 (PC-3 prostate) of the same compound?
A: 5.77 µM

Q: What about the TGI (PC-3 prostate) of the same compound?
A: 31 µM

Q: What about the GI50 (RXF 393 renal) of the same compound?
A: 2.37 µM

Q: And the TGI (RXF 393 renal)?
A: 6.01 µM

Q: And the GI50 (MCF7 breast)?
A: 2.72 µM

Q: What about the TGI (MCF7 breast) of the same compound?
A: 20 µM

Q: And the GI50 (COLO 205 colon)?
A: 10.1 µM

Q: And the TGI (COLO 205 colon)?
A: 24.3 µM

Q: And the GI50 (TK-10 renal)?
A: 2.55 µM

Q: And the TGI (TK-10 renal)?
A: 6.79 µM

Q: And the GI50 (SF-295 CNS)?
A: 2.04 µM

Q: What about the TGI (SF-295 CNS) of the same compound?
A: 4.1 µM

Q: And the GI50 (EKVX NSCLC)?
A: 1.46 µM

Q: And the TGI (EKVX NSCLC)?
A: 2.94 µM

Q: And the GI50 (SK-MEL-2 melanoma)?
A: 9.03 µM

Q: What about the TGI (SK-MEL-2 melanoma) of the same compound?
A: 47.8 µM

Q: And the GI50 (MOLT-4 leukemia)?
A: 3.77 µM

Q: What about the TGI (MOLT-4 leukemia) of the same compound?
A: 26.2 µM

Q: What about the GI50 (NCI-H522 lung) of the same compound?
A: 3.62 µM

Q: And the TGI (NCI-H522 lung)?
A: 14.5 µM

Q: And the GI50 (UACC-62 melanoma)?
A: 1.73 µM

Q: What about the TGI (UACC-62 melanoma) of the same compound?
A: 4.33 µM

Q: What about the GI50 (UACC-257 melanoma) of the same compound?
A: 3.1 µM

Q: What about the TGI (UACC-257 melanoma) of the same compound?
A: 19.9 µM

Q: What about the GI50 (OVCAR-3 ovarian) of the same compound?
A: 2.33 µM

Q: And the TGI (OVCAR-3 ovarian)?
A: 7.21 µM

Q: And the GI50 (K-562 leukemia)?
A: 6.02 µM

Q: What about the TGI (K-562 leukemia) of the same compound?
A: > 100 µM

Q: What about the GI50 (RPMI-8226 leukemia) of the same compound?
A: 18.3 µM

Q: What about the TGI (RPMI-8226 leukemia) of the same compound?
A: 86.7 µM

Q: And the GI50 (MDA-MB-468 breast)?
A: 1.71 µM

Q: What about the TGI (MDA-MB-468 breast) of the same compound?
A: 3.44 µM

Q: What about the GI50 (U251 CNS) of the same compound?
A: 2.13 µM

Q: And the TGI (U251 CNS)?
A: 5.52 µM

Q: And the GI50 (SR leukemia)?
A: 5.35 µM

Q: What about the TGI (SR leukemia) of the same compound?
A: > 100 µM

Q: What about the GI50 (786-0 renal) of the same compound?
A: 2.25 µM

Q: What about the TGI (786-0 renal) of the same compound?
A: 4.92 µM

Q: And the GI50 (HOP-92 NSCLC)?
A: 1.84 µM

Q: What about the TGI (HOP-92 NSCLC) of the same compound?
A: 3.63 µM

Q: And the GI50 (T-47D breast)?
A: 6.48 µM

Q: What about the TGI (T-47D breast) of the same compound?
A: 86.6 µM

Q: And the GI50 (OVCAR-5 ovarian)?
A: 2.69 µM

Q: And the TGI (OVCAR-5 ovarian)?
A: 7.17 µM

Q: What about the GI50 (KM12 colon) of the same compound?
A: 6.87 µM

Q: What about the TGI (KM12 colon) of the same compound?
A: 33.8 µM

Q: What about the GI50 (HL-60(TB) leukemia) of the same compound?
A: 2.22 µM

Q: What about the TGI (HL-60(TB) leukemia) of the same compound?
A: 6.31 µM

Q: And the GI50 (NCI-H460 lung)?
A: 2.47 µM

Q: What about the TGI (NCI-H460 lung) of the same compound?
A: 9.83 µM

Q: What about the GI50 (M14 melanoma) of the same compound?
A: 1.9 µM

Q: What about the TGI (M14 melanoma) of the same compound?
A: 5.02 µM

Q: What about the GI50 (OVCAR-4 ovarian) of the same compound?
A: 5.93 µM

Q: What about the TGI (OVCAR-4 ovarian) of the same compound?
A: 62 µM

Q: What about the GI50 (SK-MEL-5 melanoma) of the same compound?
A: 1.19 µM

Q: What about the TGI (SK-MEL-5 melanoma) of the same compound?
A: 2.78 µM

Q: And the GI50 (HOP-62 NSCLC)?
A: 3.41 µM

Q: What about the TGI (HOP-62 NSCLC) of the same compound?
A: 9.67 µM

Q: And the GI50 (MDA-MB-435)?
A: 1.95 µM

Q: What about the TGI (MDA-MB-435) of the same compound?
A: 4.35 µM

Q: And the GI50 (SK-OV-3 ovarian)?
A: 8.34 µM

Q: What about the TGI (SK-OV-3 ovarian) of the same compound?
A: 31.9 µM

Q: And the GI50 (SF-268 CNS)?
A: 3.16 µM

Q: What about the TGI (SF-268 CNS) of the same compound?
A: 12.2 µM

Q: What about the GI50 (MALME-3M melanoma) of the same compound?
A: 1.51 µM

Q: And the TGI (MALME-3M melanoma)?
A: 3.24 µM

Q: And the GI50 (CCRF-CEM leukemia)?
A: 4.34 µM

Q: What about the TGI (CCRF-CEM leukemia) of the same compound?
A: 34.6 µM

Q: What about the GI50 (HT29 colon) of the same compound?
A: 3.66 µM

Q: And the TGI (HT29 colon)?
A: 15.2 µM

Q: And the GI50 (MDA-MB-231 breast)?
A: 1.85 µM

Q: And the TGI (MDA-MB-231 breast)?
A: 3.67 µM

Q: What about the GI50 (NCI-H226 lung) of the same compound?
A: 1.78 µM

Q: What about the TGI (NCI-H226 lung) of the same compound?
A: 4.74 µM

Q: And the GI50 (HCT-116 colon)?
A: 1.92 µM

Q: What about the TGI (HCT-116 colon) of the same compound?
A: 4.16 µM

Q: What about the GI50 (HS 578T breast) of the same compound?
A: 2.46 µM

Q: What about the TGI (HS 578T breast) of the same compound?
A: 9.3 µM

Q: And the GI50 (BT-549 breast)?
A: 1.57 µM

Q: And the TGI (BT-549 breast)?
A: 3.05 µM

Q: And the GI50 (HCT-15 colon)?
A: 1.72 µM

Q: And the TGI (HCT-15 colon)?
A: 3.31 µM

Q: And the GI50 (A549 NSCLC)?
A: 1.87 µM

Q: What about the TGI (A549 NSCLC) of the same compound?
A: 4.27 µM

Q: What about the GI50 (HCC-2998 colon) of the same compound?
A: 13.7 µM

Q: What about the TGI (HCC-2998 colon) of the same compound?
A: 29.5 µM

Q: And the GI50 (SW-620 colon)?
A: 2.41 µM

Q: What about the TGI (SW-620 colon) of the same compound?
A: 5.55 µM

Q: What about the GI50 (ACHN renal) of the same compound?
A: 3.29 µM

Q: What about the TGI (ACHN renal) of the same compound?
A: 9.98 µM

Q: What about the GI50 (UO-31 renal) of the same compound?
A: 1.3 µM

Q: And the TGI (UO-31 renal)?
A: 2.65 µM

Q: And the GI50 (SNB-19 CNS)?
A: 1.86 µM

Q: And the TGI (SNB-19 CNS)?
A: 4.08 µM
